{"source": "paper PMC9820592", "about": "“Novel Chiral Ru(II) Complexes as Potential c-myc G-quadruplex DNA Stabilizers Inducing DNA Damage to Suppress Triple-Negative Breast Cancer Progression” (International Journal of Molecular Sciences, 2022)", "key": {"MDA-MB-231 cells [1]": {"test_system": "MDA-MB-231 cells", "experiment": "ICP detection of Ru content in cells", "type": "cell-based, human", "details": "24 h, control 0.4", "procedure": "MDA-MB-231 cells were seeded in 10 cm cell culture dishes. After cell adherence, the cells were treated with the drug (0, 2.5, 5, and 10 μM) for 24 h. After 24 h, the cells were washed with PBS three times and collected by trypsin. The number of collected cells was counted by a cell counter. Then, the cells were digested in 1 mL HNO3 solution by microwave digestion at 120 °C for 3 min, and 1 mL of this solution was transferred to a 5 mL volumetric flask, diluted with distilled water to volume, and mixed. The Ru content of these solutions was analyzed by an ICP optical emission spectrometer (NCS, Plasma 2000). All measurements were repeated three times."}, "A549 cells": {"test_system": "A549 cells", "experiment": "MTT assay, A549 cells", "type": "cell-based, human", "details": "72 h, read-out: Inhibitory Effect (IC50/μM) A549", "procedure": "(§1) Liver cancer HepG2 cells, lung cancer A549 cells, breast cancer MCF-7 and MDA-MB-231 cells, human nasopharyngeal carcinoma CNE-1 cells, and human immortalized keratinocyte HaCaT cells were seeded in 96-well plates (5 × 10^3 cells per well) and cultured at 37 °C and 5% CO2 for 24 h. Cells were treated with different concentrations of the complexes (0, 1.5625, 3.125, 6.25, 12.5, 25, 50, and 100 µM) for 72 h. After adding 20 µL MTT (5 mg/mL) solution to each well, the cells were incubated for 4 h, and then 150 µL DMSO was added to each well. The optical density of each well was detected by a microplate reader at a wavelength of 570 nm. The cell survival rate (%) = A(experimental group)/A(control group) × 100%, and the IC50 value was analyzed and calculated based on the survival rate."}, "MDA-MB-231 cells [2]": {"test_system": "MDA-MB-231 cells", "experiment": "Flow cytometry, cell cycle distribution", "type": "cell-based, human", "details": "72 h; for G0/G1: control 63.16%", "procedure": "MDA-MB-231 cells were treated with different concentrations of the complexes (0, 10, 20, and 40 μM) for 72 h, then collected and stained with an Annexin V-FITC/PI Apoptosis Detection Kit I (BD, 556547). The MDA-MB-231 cells were fixed with 70% ethanol at 4 °C for 30 min, and then collected and stained with PI/RNase Staining Buffer (BD, 550825). The cells were analyzed by flow cytometry (Beckman, CytoFLEX). All experiments were repeated three times."}, "CNE-1 cells": {"test_system": "CNE-1 cells", "experiment": "MTT assay, CNE-1 cells", "type": "cell-based, human", "details": "72 h, read-out: Inhibitory Effect (IC50/μM) CNE-1", "procedure": "as §1"}, "c-myc protein": {"test_system": "c-myc protein", "experiment": "c-myc protein expression in MDA-MB-231 cells", "type": "cell-based, human", "details": "40 μΜ, 72 h"}, "MDA-MB-231 cells [3]": {"test_system": "MDA-MB-231 cells", "experiment": "Immunofluorescence of paxillin and F-actin", "type": "cell-based, human", "details": "24 h", "procedure": "(§2) MDA-MB-231 cells were inoculated in a 6-well plate containing a cover glass. On the second day, the cells were treated with different concentrations of the complex (0, 5, and 10 μM) for 24 h. The cells were fixed with 4% paraformaldehyde for 20 min, and then blocked with 5% BSA for 0.5 h at room temperature. The 1:500 anti-γH2AX antibody was diluted with 5% FBS and incubated for 1 h. The cells were incubated with lgG (H + L) for 0.5 h and treated with DAPI for 5 min. The cover glass was then transferred to a specified microscope slide and photographed with laser confocal microscopy. The antibodies used in immunofluorescence to determine invasion and metastasis were anti-paxillin antibody (ab32115), Fluor 488-conjugated IgG (H + L) (Proteintech), and rhodamine phalloidin (Amanita phalloidin, cytoskeleton)."}, "γ-H2AX": {"test_system": "γ-H2AX", "experiment": "γ-H2AX immunofluorescence", "type": "cell-based, human", "procedure": "as §2"}, "MCF-7 cells": {"test_system": "MCF-7 cells", "experiment": "MTT assay, MCF-7 cells", "type": "cell-based, human", "details": "72 h, read-out: Inhibitory Effect (IC50/μM) MCF-7", "procedure": "as §1"}, "MDA-MB-231 cells [4]": {"test_system": "MDA-MB-231 cells", "experiment": "FITC-gelatine invasion assay", "type": "cell-based, human", "details": "24 h", "procedure": "An appropriate amount of FITC–gelatine glue was pipetted to cover the inner ring of the confocal cuvette, added to 0.5% glutaraldehyde for at least 30 min after solidification, and activated with 5 mg·mL^−1 sodium borohydride. Subsequently, 2 mL of cell suspension (5 × 10^4 cells) treated with different drug concentrations (0, 2.5, 5, and 10 µM) was added to each dish. The mixture was incubated at 37 °C for 24 h, and then the cells in each dish were fixed with 4% paraformaldehyde, incubated with phalloidin staining solution for 30 min and DAPI for 5 min, and imaged with a fluorescence microscope in the dark."}, "MDA-MB-231 cells [5]": {"test_system": "MDA-MB-231 cells", "experiment": "EdU proliferation assay", "type": "cell-based, human", "details": "control 50.2%", "procedure": "The inhibitory effect of the chiral DPPZ-based Ru(II) complexes (Λ/Δ−1−3) was assessed against different human tumor cancer cells, such as breast cancer MCF-7, MDA-MB-231, lung cancer A549, liver carcinoma HepG2, nasopharyngeal carcinoma CNE-1, and human normal keratinocyte HaCaT cells, by MTT assay. […] Moreover, the inhibition of MDA-MB-231 cell proliferation by Δ−3 was detected by using an EdU (5-ethynyl-2′-deoxyuridine) staining kit, and EdU was incorporated into newly synthesized DNA in the sample cells. The red fluorescent azide is small enough to diffuse freely through native tissues and DNA, and it covalently cross-links to the EdU in a “click” chemistry reaction."}, "HaCaT cells": {"test_system": "HaCaT cells", "experiment": "MTT assay, normal HaCaT keratinocytes", "type": "cell-based", "details": "72 h, normal human keratinocytes, read-out: Inhibitory Effect (IC50/μM) HaCaT", "procedure": "as §1"}}, "note": "Several values for one entry are separate records, joined by “and”; a condition that tells them apart may be missing. Equal entries are not always repeated."}
{"substance": "Δ-[Ru(bpy)2(3-NBEDPPZ)](ClO4)2 [Δ−3]", "values": [{"measurement": "Ru content in cells", "setting": "MDA-MB-231 cells [1]; 2.5 μM", "value": 0.52, "unit": "ng/mL per 1 × 10^4 cells"}, {"measurement": "Ru content in cells", "setting": "MDA-MB-231 cells [1]; 5 μM", "value": 1.82, "unit": "ng/mL per 1 × 10^4 cells"}, {"measurement": "Ru content in cells", "setting": "MDA-MB-231 cells [1]; 10 μM", "value": 2.91, "unit": "ng/mL per 1 × 10^4 cells"}, {"measurement": "IC50", "setting": "A549 cells", "value": "24.7 ± 0.28", "unit": "µM"}, {"measurement": "G2/M", "setting": "MDA-MB-231 cells [2]; 10 μM", "value": 4.07, "unit": "%"}, {"measurement": "S", "setting": "MDA-MB-231 cells [2]; 10 μM", "value": 30.96, "unit": "%"}, {"measurement": "SubG1", "setting": "MDA-MB-231 cells [2]; 10 μM", "value": 5.40, "unit": "%"}, {"measurement": "G0/G1", "setting": "MDA-MB-231 cells [2]; 10 μM", "value": 64.97, "unit": "%"}, {"measurement": "G2/M", "setting": "MDA-MB-231 cells [2]; 20 μM", "value": 3.13, "unit": "%"}, {"measurement": "S", "setting": "MDA-MB-231 cells [2]; 20 μM", "value": 27.26, "unit": "%"}, {"measurement": "SubG1", "setting": "MDA-MB-231 cells [2]; 20 μM", "value": 4.45, "unit": "%"}, {"measurement": "G0/G1", "setting": "MDA-MB-231 cells [2]; 20 μM", "value": 69.61, "unit": "%"}, {"measurement": "G2/M", "setting": "MDA-MB-231 cells [2]; 40 μM", "value": 2.93, "unit": "%"}, {"measurement": "S", "setting": "MDA-MB-231 cells [2]; 40 μM", "value": 29.70, "unit": "%"}, {"measurement": "SubG1", "setting": "MDA-MB-231 cells [2]; 40 μM", "value": 14.97, "unit": "%"}, {"measurement": "G0/G1", "setting": "MDA-MB-231 cells [2]; 40 μM", "value": 67.37, "unit": "%"}, {"measurement": "IC50", "setting": "CNE-1 cells", "value": "40.9 ± 0.53", "unit": "µM"}, {"measurement": "expression of the c-myc protein", "setting": "c-myc protein", "value": "effectively downregulated"}, {"measurement": "focal adhesions (paxillin) and stress fibers (F-actin)", "setting": "MDA-MB-231 cells [3]", "value": "the amount of paxillin decreased"}, {"measurement": "γ-H2AX production", "setting": "γ-H2AX; 5 μM", "value": "Green fluorescence was observed"}, {"measurement": "γ-H2AX production", "setting": "γ-H2AX; 10 μM", "value": "the DNA damage was serious"}, {"measurement": "IC50", "setting": "MCF-7 cells", "value": "90.6 ± 6.34", "unit": "µM"}, {"measurement": "degraded areas (black holes) on FITC-gelatine", "setting": "MDA-MB-231 cells [4]; 10 μM", "value": "did not result in a black hole"}, {"measurement": "number of degraded areas on FITC-gelatine", "setting": "MDA-MB-231 cells [4]; 2.5 and 5 μM, control six degraded areas", "value": "markedly reduced"}, {"measurement": "proliferation rate (EdU)", "setting": "MDA-MB-231 cells [5]; 10 μM", "value": 34.9, "unit": "%"}, {"measurement": "proliferation rate (EdU)", "setting": "MDA-MB-231 cells [5]; 20 μM", "value": 22.0, "unit": "%"}, {"measurement": "proliferation rate (EdU)", "setting": "MDA-MB-231 cells [5]; 40 μM", "value": 5.1, "unit": "%"}, {"measurement": "IC50", "setting": "HaCaT cells", "value": "70.9 µM and 71 µM"}]}
